Bounds are passed on as bounds.

One assay has as its target T1, elastase from human neutrophil (Homo sapiens, UniProt P08246).
T1 construct: using elastase from human neutrophil; from tissue; host or cells: human neutrophil
T1 sequence (P08246 30-247 limits assumed): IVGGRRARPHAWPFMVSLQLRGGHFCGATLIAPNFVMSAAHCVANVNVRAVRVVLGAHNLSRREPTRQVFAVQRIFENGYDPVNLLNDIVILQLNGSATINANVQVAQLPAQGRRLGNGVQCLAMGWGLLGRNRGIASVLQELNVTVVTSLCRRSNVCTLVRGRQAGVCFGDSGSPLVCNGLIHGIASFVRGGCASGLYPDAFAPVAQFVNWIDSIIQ
The experiment in a line: Inhibitory effect on elastase (spectrophotometric method, substrate Suc-Ala-Pro-Ala-pNA).
Conditions: not given
In kind it is biochemical.
As usually defined, the IC50 is the concentration that gives 50% inhibition. `CN(C)C(=O)Oc1cc(Cl)cc(OC(=O)c2ccc(NC(=N)N)cc2)c1` [Example 87]: the midpoint of inhibition, the IC50, lay at 0.76 µM.

Take `CCNC(=O)Oc1cc(Cl)cc(OC(=O)c2ccc(NC(=N)N)cc2)c1` [Example 88]: the IC50 was determined as 1.1 µM.

The assay is the same for the next values; noted with them: Y represents an oxygen atom; pH 8.0, 37° C., 30 minutes; read-out: Inhibitory Effect on Elastase, IC50.
Consider `Cc1cc(OC(=O)c2ccc(NC(=N)N)cc2)cc(OC(=O)c2ccc(NC(=N)N)cc2)c1` [Example 70], for which the IC50 amounted to 6.4 µM.

Regarding `CC(=O)OCc1cc(Cl)cc(OC(=O)c2ccc(NC(=N)N)cc2)c1` [Example 71], the IC50 amounted to 3 µM.

Turning to `CS(=O)(=O)c1ccc(OC(=O)c2ccc(NC(=N)N)cc2)cc1` [Example 72], the half-inhibitory concentration (IC50) was more than 100 µM.

Turning to `COc1cc(OC(=O)c2ccc(NC(=N)N)cc2)cc(OS(C)(=O)=O)c1` [Example 73], the IC50 is 4.7 µM.

Consider `CS(=O)(=O)Oc1cc(Cl)cc(OC(=O)c2ccc(NC(=N)N)cc2)c1` [Example 74], for which the IC50 was determined as 1 µM.

As for `CC(C)S(=O)(=O)Oc1cc(Cl)cc(OC(=O)c2ccc(NC(=N)N)cc2)c1` [Example 76], the IC50 turned out to be 1.1 µM.

In the case of `N=C(N)Nc1ccc(C(=O)Oc2cc(Cl)cc(OS(=O)(=O)c3ccccc3)c2)cc1` [Example 77], the IC50 came to 0.8 µM.

`CCS(=O)(=O)Oc1cc(C)cc(OC(=O)c2ccc(NC(=N)N)cc2)c1` [Example 78]: the IC50 stood at 27 µM.

Consider `N=C(N)Nc1ccc(C(=O)Oc2cc(Cl)cc(C(N)=O)c2)cc1` [Example 79], for which the IC50 was 5.2 µM.

In the case of `CNC(=O)c1cccc(OC(=O)c2ccc(NC(=N)N)cc2)c1Cl` [Example 81], the IC50 came out at 6 µM.

Take `N=C(N)Nc1ccc(C(=O)Oc2cc(Cl)cc(C(=O)Nc3cccnc3)c2)cc1` [Example 86]: the IC50 is 0.93 µM.

Consider `N=C(N)Nc1ccc(C(=O)Oc2cccc(S(N)(=O)=O)c2)cc1` [Example 89], for which the half-inhibitory concentration (IC50) came out at 65 µM.

On to `CN(C)S(=O)(=O)c1ccc(OC(=O)c2ccc(NC(=N)N)cc2)cc1Cl` [Example 90], for which the IC50 came out at 140 µM.

As to `CCN(CC)S(=O)(=O)c1ccccc1OC(=O)c1ccc(NC(=N)N)cc1` [Example 91], the IC50 is 180 µM.

`CCN(CC)S(=O)(=O)c1cccc(OC(=O)c2ccc(NC(=N)N)cc2)c1` [Example 92]: the IC50 amounted to 35 µM.

Turning to `CCN(CC)S(=O)(=O)c1ccc(OC(=O)c2ccc(NC(=N)N)cc2)cc1` [Example 93], the IC50 came to 58 µM.

For the molecule `CCN(CC)S(=O)(=O)c1cc(Cl)cc(OC(=O)c2ccc(NC(=N)N)cc2)c1` [Example 95], the IC50 is 4.8 µM.

In the case of `CCN(CC)S(=O)(=O)c1ccc(OC(=O)c2ccc(NC(=N)N)cc2)c(F)c1` [Example 96], the IC50 was 61 µM.

In the case of `CCCN(CCC)S(=O)(=O)c1ccc(OC(=O)c2ccc(NC(=N)N)cc2)cc1` [Example 97], the IC50 is 58 µM.

With `N=C(N)Nc1ccc(C(=O)Oc2ccc(S(=O)(=O)N3CCCC3)cc2)cc1` [Example 98], the 50% inhibitory concentration (IC50) was determined as 77 µM.

The same assay, now with this note: at 100 μM; Y represents an oxygen atom.
As usually defined, the inhibition is how much of the control response was suppressed. A high value points to a response far below the control. As to `CN(C)C(=O)c1cccc(OC(=O)c2ccc(NC(=N)N)cc2)c1` [Example 80], the inhibition at 100 µM amounted to 30%.

Regarding `CNC(=O)c1cc(OC(=O)c2ccc(NC(=N)N)cc2)cc(OC(=O)c2ccc(NC(=N)N)cc2)c1` [Example 82], the inhibition at 100 µM worked out at 38%.

The molecule `CCNC(=O)c1cc(OC(=O)c2ccc(NC(=N)N)cc2)cc(C(=O)NCC)c1` [Example 83] registered an inhibition at 100 µM of 28%.

In the case of `CCCNC(=O)c1cc(OC(=O)c2ccc(NC(=N)N)cc2)cc(C(=O)NCCC)c1` [Example 84], the inhibition at 100 µM came to 36%.

With `N=C(N)Nc1ccc(C(=O)Oc2cc(OC(=O)c3ccc(NC(=N)N)cc3)cc(C(=O)NCc3ccccc3)c2)cc1` [Example 85], the inhibition at 100 µM came out at 27%.

`N=C(N)Nc1ccc(C(=O)Oc2cccc(S(=O)(=O)N3CCCCC3)c2)cc1` [Example 99] yielded an inhibition at 100 µM of 41%.

In turn, `N=C(N)Nc1ccc(C(=O)Oc2cccc(S(=O)(=O)N3CCOCC3)c2)cc1` [Example 100] had an inhibition at 100 µM of 44.2%.

`N=C(N)Nc1ccc(C(=O)Oc2ccc(S(=O)(=O)N3CCOCC3)cc2)cc1` [Example 101] came in with an inhibition at 100 µM of 34.9%.
